Consider one compound from publication PMC8922281, “Synthesis and In Vitro Biological Evaluation of Quinolinyl Pyrimidines Targeting Type II NADH-Dehydrogenase (NDH-2)” (ACS Infectious Diseases, 2022).

Converted amounts (≈) assume the structure as drawn.

For the experiment, the system named is A. baumannii ATCC19606 resistant mutant. As to the kind of experiment: microbe, parasite or virus in culture. Type of experiment: cell-based.

As for `CCOc1cc(Nc2ccc3nc(-c4ccc(F)cc4)cc(N)c3c2)nc(N)n1` [Compound 9a, N^6-(2-Amino-6-ethoxypyrimidin-4-yl)-2-(4-fluorophenyl)quinoline-4,6-diamine], where the note is “Acinetobacter baumannii, ATCC19606, read-out: MIC mutant”, the MIC came to 4 µg/mL (≈ 10.2 µM). Moreover, the “fold increase of MIC” value (mutant CH5080 vs parent A. baumannii ATCC19606) was 2.
